Data from the supplement of paper PMC11061612.

Legend:
[1] = system: OAW-28 (Ovarian Carcinoma); experiment: Bliss excess, mean over the matrix (fraction); higher = more synergy
How it was run: (§1)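 Bliss excess equals the observed combination effect minus the expected value EA + EB − EA·EB, where EA and EB are the effects of each agent alone. Combination Emax is the second-highest inhibition within the matrix. Inhibition was scaled from CellTiter-Glo 2.0 luminescence, with 0 set by vehicle wells and 1 by blank wells, after 72 hours of two-drug dosing of cells plated in 1536-well plates.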

[2] = system: NCI-H596 (Other Solid Carcinomas); experiment: as above
How it was run: as §1

`CS(=O)(=O)CCNCc1ccc(-c2ccc3ncnc(Nc4ccc(OCc5cccc(F)c5)c(Cl)c4)c3c2)o1` [Lapatinib] + NC1(c2ccc(-c3nc4ccn5c(=O)[nH]nc5c4cc3-c3ccccc3)cc2)CCC1 [MK-2206] (first compound max 10 µM, 7x7, partner max 10 µM) gave a Bliss excess [1] of 0.0285 and a Bliss excess [2] of -0.045.
